Data from US7381521B2, “Anti-pathogenic composition useful in blood preservation” (Altachem Pharma Ltd., priority 2001, dated 2008).

What was measured:
E. coli ATCC 11229 = assay: Test 2 (DGHM), growth inhibition by dilutions, 72 hours at 37° C.; assay type: cell-based, Escherichia coli
Procedure: (§1) Another test was carried out a basis of the following solutions • 100 ml of a 0.1% solution of chlorohexidine digluconate (pH 6); and • 100 ml of a 0.1% solution of Bardac22®.
(§2) The activity of these solutions, alone or in combination, was more particularly tested in respect of Staphylococcus aureus ATCC 6538, Escherichia coli ATCC 11229 and Candida albicans ATCC 10231.
(§3) The tests were conducted in accordance with the procedure described in Chapter I/2.1 and 2.2 of Tichtlinien für die Prüfung und Bewertung chemischer Desinfektionsverfahren der DGHM/Guidelines for Testing and Evaluating Chemical Disinfection Processes of DGHM as at 1.1, 1981.
Tables IX, X and XI respectively illustrate the bactericidal and fungicidal activity of a 0.1% aqueous solution of chlorohexidine digluconate, a 0.1% aqueous solution of Bardac22® and a mixture of equal parts of both compounds. The procedures of which these Tables illustrate the results comprise incubation of 72 hours at 37° C. and the use of the following inactivating substances as controls: • A: 3% Tween®80+0.3% lecithin+0.1% cysteine • B: 3% Tween®80+3% saponin+0.1% cysteine+0.1% histidine; • C: 3% Tween®80+0.3% lecithin+0.1% histidine+0.5% sodium thiosulphate.
In these Tables, the sign “+” indicates an increase and the sign “−” denotes the absence of growth.

[1] = system: erythrocytes in heparinized bovine blood; assay: In-vitro hemolysis of erythrocytes in heparinized whole blood, absorbance at 413 nm; conditions: 1 hour at 37° C.
Procedure: The effect of the compounds on the in-vitro hemolysis of erythrocytes in heparinized whole blood is monitored by a spectrophotometric method.
Various formulations and concentrations of the test compound are added to heparinized bovine blood and mixed gently in a 1.5 ml microcentrifuge tube. The sample is allowed to incubate for 1 hour at 37° C. At the end of incubation, the samples are removed from the incubator and centrifuged at 2000 rpm for 5 minutes. A 200 μl aliquot of the supernatant is removed from each sample into a 96 well microtiter plate and read at 413 nm. The absorbance of the test sample is compared to the control sample containing phosphate buffered saline, pH 7.2.

C. albicans ATCC 1031 = assay: Test 2 (DGHM), action as a function of disinfection time at 22° C., 8 × 10^7 organisms/ml; assay type: cell-based, Candida albicans
Procedure: as §1, §2, §3

human fibroblastic cells = assay: Cytotoxicity check of the products on human fibroblastic cells; assay type: cell-based
Procedure: Cytotoxicity checks are conducted on the products for cellular cultures used in the tests, that is to say the human fibroblastic cells.
The cells are cultivated on a Dulbecco medium enriched with 10% fetal calf serum; at the moment of their use, the cells are washed and the same culture medium is used but without calf serum.
For each product tested or each composition, 10 tubes of cellular culture were used and after inoculation of the product, the tubes were kept under observation for 3 days.
Each product was, in succession, used pure and at dilutions of 10^−1, 10^−2, 10^−3 and added to culture tubes containing 1 ml of nutrient medium in a volume of 0.1 ml.

S. aureus ATCC 6538 = assay: Test 2 (DGHM), action as a function of disinfection time at 22° C., 8 × 10^8 organisms/ml; assay type: cell-based, Staphylococcus aureus
Procedure: as §1, §2, §3

[H]/N=C(\N/C(=N/[H])NCCCCCCNC(=N)NC(=N)Nc1ccc(Cl)cc1)Nc1ccc(Cl)cc1 [Chlorhexidine, chlorohexidine digluconate, reference compound]
concentration of active substance inhibiting growth (E. coli ATCC 11229): 0.0005% | dilution of the 0.1% solution inhibiting growth (E. coli ATCC 11229): 0.5% | growth (E. coli ATCC 11229; 0.00625% vol/vol, inactivator A): + | growth (E. coli ATCC 11229; 0.00625% vol/vol, inactivator B): + | growth (E. coli ATCC 11229; 0.00625% vol/vol, inactivator C): + | growth (E. coli ATCC 11229; 0.00625% vol/vol, no inactivator): + | growth (E. coli ATCC 11229; 0.0125% vol/vol, inactivator A): + | growth (E. coli ATCC 11229; 0.0125% vol/vol, inactivator B): + | growth (E. coli ATCC 11229; 0.0125% vol/vol, inactivator C): + | growth (E. coli ATCC 11229; 0.0125% vol/vol, no inactivator): + | growth (E. coli ATCC 11229; 0.025% vol/vol, inactivator A): + | growth (E. coli ATCC 11229; 0.025% vol/vol, inactivator B): + | growth (E. coli ATCC 11229; 0.025% vol/vol, inactivator C): + | growth (E. coli ATCC 11229; 0.025% vol/vol, no inactivator): + | growth (E. coli ATCC 11229; 0.05% vol/vol, inactivator A): + | growth (E. coli ATCC 11229; 0.05% vol/vol, inactivator B): + | growth (E. coli ATCC 11229; 0.05% vol/vol, inactivator C): + | growth (E. coli ATCC 11229; 0.05% vol/vol, no inactivator): + | growth (E. coli ATCC 11229; 0.1% vol/vol, inactivator A): + | growth (E. coli ATCC 11229; 0.1% vol/vol, inactivator B): + | growth (E. coli ATCC 11229; 0.1% vol/vol, inactivator C): + | growth (E. coli ATCC 11229; 0.1% vol/vol, no inactivator): + | growth (E. coli ATCC 11229; 0.5% vol/vol, inactivator A): + | growth (E. coli ATCC 11229; 0.5% vol/vol, inactivator B): + | growth (E. coli ATCC 11229; 0.5% vol/vol, inactivator C): + | growth (E. coli ATCC 11229; 0.5% vol/vol, no inactivator): − | growth (E. coli ATCC 11229; 1.0% vol/vol, inactivator A): + | growth (E. coli ATCC 11229; 1.0% vol/vol, inactivator B): + | growth (E. coli ATCC 11229; 1.0% vol/vol, inactivator C): + | growth (E. coli ATCC 11229; 1.0% vol/vol, no inactivator): − | Concentration at which hemolysis is not observed ([1]; component of test compound Bardac 22 + Chlorohexidine Gluconate + Tergitol NP-9): 0.001% | Concentration at which hemolysis is not observed ([1]; component of test compound Bardac 22 + Chlorohexidine Gluconate): 0.0125% | growth (C. albicans ATCC 1031; 0.05% vol/vol, 1 min): + | growth (C. albicans ATCC 1031; 0.05% vol/vol, 3 min): + | growth (C. albicans ATCC 1031; 0.05% vol/vol, 5 min): + | growth (C. albicans ATCC 1031; 0.05% vol/vol, 15 min): + | growth (C. albicans ATCC 1031; 0.05% vol/vol, 30 min): + | growth (C. albicans ATCC 1031; 0.05% vol/vol, 60 min): + | growth (C. albicans ATCC 1031; 0.1% vol/vol, 1 min): + | growth (C. albicans ATCC 1031; 0.1% vol/vol, 3 min): + | growth (C. albicans ATCC 1031; 0.1% vol/vol, 5 min): + | growth (C. albicans ATCC 1031; 0.1% vol/vol, 15 min): + | growth (C. albicans ATCC 1031; 0.1% vol/vol, 30 min): + | growth (C. albicans ATCC 1031; 0.1% vol/vol, 60 min): + | growth (C. albicans ATCC 1031; 0.5% vol/vol, 1 min): + | growth (C. albicans ATCC 1031; 0.5% vol/vol, 3 min): + | growth (C. albicans ATCC 1031; 0.5% vol/vol, 5 min): + | growth (C. albicans ATCC 1031; 0.5% vol/vol, 15 min): + | growth (C. albicans ATCC 1031; 0.5% vol/vol, 30 min): + | growth (C. albicans ATCC 1031; 0.5% vol/vol, 60 min): + | growth (C. albicans ATCC 1031; 1% vol/vol, 1 min): + | growth (C. albicans ATCC 1031; 1% vol/vol, 3 min): + | growth (C. albicans ATCC 1031; 1% vol/vol, 5 min): + | growth (C. albicans ATCC 1031; 1% vol/vol, 15 min): + | growth (C. albicans ATCC 1031; 1% vol/vol, 30 min): + | growth (C. albicans ATCC 1031; 1% vol/vol, 60 min): − | growth (C. albicans ATCC 1031; 5% vol/vol, 1 min): + | growth (C. albicans ATCC 1031; 5% vol/vol, 3 min): + | growth (C. albicans ATCC 1031; 5% vol/vol, 5 min): + | growth (C. albicans ATCC 1031; 5% vol/vol, 15 min): + | growth (C. albicans ATCC 1031; 5% vol/vol, 30 min): − | growth (C. albicans ATCC 1031; 5% vol/vol, 60 min): − | growth (C. albicans ATCC 1031; 10% vol/vol, 1 min): + | growth (C. albicans ATCC 1031; 10% vol/vol, 3 min): + | growth (C. albicans ATCC 1031; 10% vol/vol, 5 min): + | growth (C. albicans ATCC 1031; 10% vol/vol, 15 min): + | growth (C. albicans ATCC 1031; 10% vol/vol, 30 min): − | growth (C. albicans ATCC 1031; 10% vol/vol, 60 min): − | growth (C. albicans ATCC 1031; 25% vol/vol, 1 min): + | growth (C. albicans ATCC 1031; 25% vol/vol, 3 min): + | growth (C. albicans ATCC 1031; 25% vol/vol, 5 min): + | growth (C. albicans ATCC 1031; 25% vol/vol, 15 min): − | growth (C. albicans ATCC 1031; 25% vol/vol, 30 min): − | growth (C. albicans ATCC 1031; 25% vol/vol, 60 min): − | toxicity for the cell cultures (human fibroblastic cells): no toxicity | growth (S. aureus ATCC 6538; 0.05% vol/vol, 1 min): + | growth (S. aureus ATCC 6538; 0.05% vol/vol, 3 min): + | growth (S. aureus ATCC 6538; 0.05% vol/vol, 5 min): + | growth (S. aureus ATCC 6538; 0.05% vol/vol, 15 min): + | growth (S. aureus ATCC 6538; 0.05% vol/vol, 30 min): + | growth (S. aureus ATCC 6538; 0.05% vol/vol, 60 min): + | growth (S. aureus ATCC 6538; 0.1% vol/vol, 1 min): + | growth (S. aureus ATCC 6538; 0.1% vol/vol, 3 min): + | growth (S. aureus ATCC 6538; 0.1% vol/vol, 5 min): + | growth (S. aureus ATCC 6538; 0.1% vol/vol, 15 min): + | growth (S. aureus ATCC 6538; 0.1% vol/vol, 30 min): + | growth (S. aureus ATCC 6538; 0.1% vol/vol, 60 min): + | growth (S. aureus ATCC 6538; 0.5% vol/vol, 1 min): + | growth (S. aureus ATCC 6538; 0.5% vol/vol, 3 min): + | growth (S. aureus ATCC 6538; 0.5% vol/vol, 5 min): + | growth (S. aureus ATCC 6538; 0.5% vol/vol, 15 min): + | growth (S. aureus ATCC 6538; 0.5% vol/vol, 30 min): + | growth (S. aureus ATCC 6538; 0.5% vol/vol, 60 min): + | growth (S. aureus ATCC 6538; 1% vol/vol, 1 min): + | growth (S. aureus ATCC 6538; 1% vol/vol, 3 min): + | growth (S. aureus ATCC 6538; 1% vol/vol, 5 min): + | growth (S. aureus ATCC 6538; 1% vol/vol, 15 min): + | growth (S. aureus ATCC 6538; 1% vol/vol, 30 min): + | growth (S. aureus ATCC 6538; 1% vol/vol, 60 min): + | growth (S. aureus ATCC 6538; 5% vol/vol, 1 min): + | growth (S. aureus ATCC 6538; 5% vol/vol, 3 min): + | growth (S. aureus ATCC 6538; 5% vol/vol, 5 min): + | growth (S. aureus ATCC 6538; 5% vol/vol, 15 min): + | growth (S. aureus ATCC 6538; 5% vol/vol, 30 min): + | growth (S. aureus ATCC 6538; 5% vol/vol, 60 min): + | growth (S. aureus ATCC 6538; 10% vol/vol, 1 min): + | growth (S. aureus ATCC 6538; 10% vol/vol, 3 min): + | growth (S. aureus ATCC 6538; 10% vol/vol, 5 min): + | growth (S. aureus ATCC 6538; 10% vol/vol, 15 min): + | growth (S. aureus ATCC 6538; 10% vol/vol, 30 min): + | growth (S. aureus ATCC 6538; 10% vol/vol, 60 min): − | growth (S. aureus ATCC 6538; 25% vol/vol, 1 min): + | growth (S. aureus ATCC 6538; 25% vol/vol, 3 min): + | growth (S. aureus ATCC 6538; 25% vol/vol, 5 min): + | growth (S. aureus ATCC 6538; 25% vol/vol, 15 min): + | growth (S. aureus ATCC 6538; 25% vol/vol, 30 min): − | growth (S. aureus ATCC 6538; 25% vol/vol, 60 min): −
